Assay results: publication PMC10910475, “Synthesis and biological profile of 2,3-dihydro[1,3]thiazolo[4,5-b]pyridines, a novel class of acyl-ACP thioesterase inhibitors” (Beilstein Journal of Organic Chemistry, 2024)

target: T1, LpFAT A (FAT A from LEMPA; acyl-ACP thioesterase) (Lemna aequinoctialis, UniProt Z9A7P1QTQ5); test: fluorescence polarization competition with fluorescent tracer; type: binding; conditions: 25 mM potassium phosphate pH 7.3, 200 mM NaCl, 0.01% Triton X-100, 2 nM tracer, room temperature; value is negative log
T1 construct: chloroplast transit peptide replaced by N-terminal 6xHis-tag; pET24; E. coli BL21Star(DE3); Ni-NTA purified
T1 sequence (Z9A7P1QTQ5 10-320): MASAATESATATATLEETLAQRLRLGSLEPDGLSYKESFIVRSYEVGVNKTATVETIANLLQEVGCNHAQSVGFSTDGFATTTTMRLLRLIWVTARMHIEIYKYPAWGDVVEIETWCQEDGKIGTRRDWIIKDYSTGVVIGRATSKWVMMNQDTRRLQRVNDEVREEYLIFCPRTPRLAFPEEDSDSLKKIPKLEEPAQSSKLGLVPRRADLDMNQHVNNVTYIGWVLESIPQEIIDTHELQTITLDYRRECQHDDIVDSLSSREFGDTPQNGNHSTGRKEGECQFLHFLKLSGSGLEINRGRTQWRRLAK
Excerpt: fluorescence polarization competition with fluorescent tracer on LpFAT A (FAT A from LEMPA; acyl-ACP thioesterase)

Compound | pI50
Cc1cc2c(nc1-c1ccccc1)NCS2 [7a] | 5.9
Cc1cc2c(nc1-c1ccccc1F)NCS2 [7b, 5-(2-Fluorophenyl)-6-methyl-2,3-dihydro[1,3]thiazolo[4,5-b]pyridine] | 6.1
Cc1ccccc1-c1nc2c(cc1C)SCN2 [7c] | 6.3
Cc1ccccc1COC1CC2(C(C)C)CCC1(C)O2 (centres unmarked) [compound 1, cinmethylin, reference compound] | 6.8
Cc1ccsc1C1=NOC(C)(COCc2c(F)cccc2F)C1 (centres unmarked) [compound 2, methiozolin, reference compound] | 7.1
Cc1cc2scnc2nc1-c1ccccc1F [compound 5, 5-(2-fluorophenyl)-6-methyl[1,3]thiazolo[4,5-b]pyridine, reference compound] | 7.2

Second part, the molecule after the results:

pI50 | Compound
5.7 | Brc1cc2c(nc1-c1ccccc1)NCS2 [13a, 6-Bromo-5-phenyl-2,3-dihydrothiazolo[4,5-b]pyridine]
7.3 | Fc1ccccc1-c1nc2c(cc1Br)SCN2 [13b, 6-bromo-5-(2-fluorophenyl)-2,3-dihydro[1,3]thiazolo[4,5-b]pyridine]
4.5 | Cc1ccccc1-c1nc2c(cc1Br)SCN2 [13c, 6-bromo-5-(2-tolyl)-2,3-dihydrothiazolo[4,5-b]pyridine]
5.5 | CC(=O)N1CSc2cc(Br)c(-c3ccccc3)nc21 [14a]
4.7 | CC(C)C(=O)N1CSc2cc(Br)c(-c3ccccc3F)nc21 [14b]
4.3 | CC(=O)N1CSc2cc(Br)c(-c3ccccc3C)nc21 [14c]
5.5 | CC(=O)N1CSc2cc(C)c(-c3ccccc3)nc21 [16a]
4.7 | Cc1cc2c(nc1-c1ccccc1)N(C(=O)C(C)C)CS2 [16b]
5.3 | CC(=O)N1CSc2cc(C)c(-c3ccccc3F)nc21 [16c, 1-[5-(2-fluorophenyl)-6-methyl[1,3]thiazolo[4,5-b]pyridin-3(2H)-yl]ethanone]
4.7 | Cc1cc2c(nc1-c1ccccc1F)N(C(=O)C(C)C)CS2 [16d]
4.1 | CC(=O)N1CSc2cc(C)c(-c3ccccc3C)nc21 [16e]
4.8 | Cc1ccccc1-c1nc2c(cc1C)SCN2C(=O)C(C)C [16f]
4.8 | BN1CSc2cc(Br)c(-c3ccccc3C)nc21 [17d, aminoborane 17d]
< 4.0 | Cc1ccccc1-c1nc2c(cc1Br)SCN2B1NB(N)N1 [17e, aminoborane 17e]
